Test results published in patent EP0213490A2, “Colour-photographic recording material” (Agfa-Gevaert AG, priority 1985, dated 1987).

Key:
[1] = Solubility determination in ethyl acetate (parts by weight of solvent needed to dissolve one part of yellow dye); format: physicochemical; settings: Ethylacetat, 60°C
Description: Von den erfindungsgemäßen Verbindungen II-1, 11-5 und III-1 sowie von den strukturanalogen Vergleichsverbindungen V-1, V-2, V-3, V-4, V-5 und V-6 wurden deren Löslichkeit in Ethylacetat bei 60°C bestimmt. Hierzu wurde ermittelt, wieviele Gewichtsteile Lösungsmittel zum Lösen eines Gewichtsteils Gelbfarbstoff erforderlich sind. Die miteinander zu vergleichenden Farbstoffe unterschieden sich jeweils ausschließlich in der Substitution des Phenylazorestes

[2] = Dissolving the mask coupler in tricresyl phosphate/ethyl acetate for dispersion preparation; format: physicochemical; settings: 55°C
Description: Von der erfindungsgemäßen Verbindung 11-1 wurde die Dispersion la und von der betreffenden Vergleichsverbindung V-2 wurde die Dispersion lb jeweils nach der nachfolgend beschriebenen Vorschrift hergestellt. 100 g Maskenkuppler werden in einer Abmischung aus 100 g Trikresylphosphat und 300 g Ethylacetat bei 55^*C gelöst. […] Die Lösung wird in 1 kg einer 7,5 %igen wäßrigen Gelatine, die ebenfalls auf 55°C erhitzt ist und mit 10 g Alkanol XC versehen war, mit einem hochtourigen Mischer einemulgiert. Anschließend wurde das niedrig siedende Lösungsmittel im Vakuum entfernt und die zurückbleibende Dispersion bei 6°C erstarrt.
Gemäß der im Beispiel 2 beschriebenen allgemeinen Vorschrift wurde aus der erfindungsgemäßen Verbindung 11-5 die Dispersion 2a und aus der betreffenden Vergleichsverbindung V-4 die Dispersion 2b hergestellt. (Die Vergleichsverbindung V-4 mußte, damit sie in Lösung ging, in der hydrophoben Dispersionsphase auf 70°C erhitzt werden).

SMILES | 1 Gew.-Teil Verbindung löst sich in X Gew.-Teilen Ethyl-acetat [1] | Dissolution of 100 g Maskenkuppler in 100 g Trikresylphosphat and 300 g Ethylacetat [2]
CCCCCCCCCCCCCC(=O)Nc1ccc(Cl)c(NC2=NN(c3c(Cl)cc(Cl)cc3Cl)C(=O)C2N=Nc2ccc(OC(C)C)c(OC(C)C)c2)c1 (centres unmarked) [II-1] | 2,5 Gew.-Teilen Ethyl-acetat | 
CCCCCCCCCCCCCC(=O)Nc1ccc(Cl)c(NC2=NN(c3c(Cl)cc(Cl)cc3Cl)C(=O)C2N=Nc2ccc(OCCC)c(OCCC)c2)c1 (centres unmarked) [V-3] | 23 Gew.-Teilen Ethyl-acetat | 
CCCCCCCCCCCCCC(=O)Nc1ccc(Cl)c(NC2=NN(c3c(Cl)cc(Cl)cc3Cl)C(=O)C2N=Nc2ccc(OC)c(OC)c2)c1 (centres unmarked) [V-1] | 15 Gew.-Teilen Ethyl-acetat | 
CCCCCCCCCCCCCC(=O)Nc1ccc(Cl)c(NC2=NN(c3c(Cl)cc(Cl)cc3Cl)C(=O)C2N=Nc2ccc(OCC)c(OCC)c2)c1 (centres unmarked) [V-2] | 19 Gew.-Teilen Ethyl-acetat | mußte neben Ethylacetat noch soviel Tetrahydrofuran zugesetzt werden, daß sie bei 55 °C in Lösung ging
